# Paper PMC5556071, “ATR inhibition facilitates targeting of leukemia dependence on convergent nucleotide biosynthetic pathways” (Nature Communications, 2017)
# Several values for one entry are separate records, joined by “and”; a condition that tells them apart may be missing. Equal values may be shown once.
# Tested on: CEM cells
# Assay: Non-targeted LC-MS metabolite profiling: percent [13C6]glucose labeling and relative metabolite levels
# Format: cell-based, human
# Settings: CEM cells, 12 h following release from G1 arrest, replicates #1-#6
# Text: To further investigate the functions of dCK and ATR at the G1/S transition in CEM cells, a non-targeted liquid chromatography mass spectrometry (LC-MS) assay was used to determine the utilization of labeled [^13C6]glucose and [^13C9,^15N3]deoxycytidine, the main substrates for de novo and salvage nucleotide biosynthesis, respectively. Of the 166 metabolites identified in CEM cells treated with VE-822 and/or dCKi, 105 metabolites found in all four treatment groups contained glucose-derived ^13C atoms. […] These metabolites included intermediates such as rUTP, rCTP and rCDP in the de novo dCTP biosynthesis (Fig. 1d). […] However, several deoxyribonucleotides, including dCTP, were below the limit of detection of the non-targeted LC-MS approach, raising the concern that the sensitivity of this assay is not sufficient to measure the contribution of the salvage pathway or the ratio of de novo and salvage biosynthesis to these pools. To address this problem, a newly developed targeted MS assay was developed (Fig. 1e and Supplementary Fig. 3). In this assay, samples containing either extracted dNTPs or hydrolyzed DNA from labeled cells are separated by LC for detection by a triple quadrupole mass spectrometer using multiple reaction monitoring (LC-MS/MS-MRM). The first (Q1) and third (Q3) quadrupoles function as mass filters, while the second (Q2) quadrupole serves as a collision chamber (Fig. 1e). For instance, to profile the biosynthetic composition of deoxycytidine (dC) derived from hydrolyzed DNA or dCTP, an intact, protonated dC ion is selected in Q1, followed by fragmentation of the glycosidic bond, which releases protonated cytosine in Q2, that is filtered in Q3 and detected to generate an ion chromatogram. The peak areas for the ion chromatograms of salvage [^13C9,^15N3]dC (red trace), de novo [^13C5]dC (black trace, from [^13C6]glucose) and unlabeled dC (gray trace) (Fig. 1e) are used to determine the relative contributions of the de novo and salvage routes both to dCTP pools and to DNA-incorporated dCTP.
# Cells were transferred into RPMI-1640 without glucose and supplemented with 10% dialyzed FBS (Gibco) containing the following labeled substrates: precursors for de novo [U-^13C6]glucose (Sigma-Aldrich, 389374) at 11 mM; precursors for purine salvage [U-^13C10,^15N5]dA (Cambridge Isotopes, CIL 3896), [^15N5]dA (Cambridge Isotopes, NLM-3895) and [^15N5]dG (Cambridge Isotopes, NLM-3899) at 5 µM or as indicated; and precursors for pyrimidine salvage: [U-^13C9,^15N3]dC (Silantes, 124603602) and [U-^13C10,^15N2]dT (Cambridge Isotopes, CNLM-3902) at 5 µM and [^15N2]orotate (Cambridge Isotopes, NLM-1048) at indicated concentrations. The cells were incubated for 12 h or as indicated before sample collection and processing. […]
# Non-targeted LC-MS metabolic assays. 1 x 10^6 cells were washed with ice-cold 150 mM ammonium acetate twice before adding 1 mL of ice-cold 80% methanol with 10 nM norvaline as an internal standard. After vigorous vortexing, samples were centrifuged at maximum speed, the aqueous layer was transferred to a glass vial and the metabolites were dried under vacuum. Metabolites were resuspended in 50 μL 70% acetonitrile (ACN) and 5 μL of this solution used for the mass spectrometer-based analysis. The analysis was performed on a Q Exactive (Thermo Scientific) in polarity-switching mode with positive voltage 4.0 kV and negative voltage 4.0 kV. The mass spectrometer was coupled to an UltiMate 3000RSLC (Thermo Scientific) UHPLC system. Mobile phase A was 5 mM ammonium acetate (NH4AcO), pH 9.9, B was acetonitrile and the separation achieved on a Luna […] NH2 100 A column (150 × 2.0 mm, Phenomenex). The flow was 200 μL/min, and the gradient ran from 15% A to 95% A in 18 min, followed by an isocratic step for 9 min and re-equilibration for 7 min. Metabolites were detected and quantified as area under the curve based on retention time and accurate mass (≤ 3 p.p.m.) using the TraceFinder 3.1 (Thermo Scientific). Relative amounts of […]
# [1] = metabolite 2-HG (C02630), listed as D
# [2] = metabolite 2-Oxoadipate (C00322), listed as D
# [3] = metabolite 3PG (C00197), listed as D
# [4] = metabolite 4-OH-PheLac (C03672), listed as D
# [5] = metabolite 5-Oxoproline (C01879), listed as D
# [6] = metabolite 5M-adenosine (C00170), listed as D
# [7] = metabolite A (C00212), listed as D
# [8] = metabolite ADP (C00008), listed as D
# [9] = metabolite AMP (C00020), listed as D
# [10] = metabolite ATP (C00002), listed as D
# [11] = metabolite Ac-carnitine (C02571), listed as D
# [12] = metabolite Ac-choline (C01996), listed as D
# [13] = metabolite Aconitate (C00417), listed as D
# [14] = metabolite Adenine (C00034), listed as D
# [15] = metabolite Ala (C00041), listed as D
# [16] = metabolite Allantoin (C02350), listed as D
# [17] = metabolite Arg (C00062), listed as D
compound,measurement,setting,value
COc1ccc(-c2nc([C@@H](C)Sc3nc(N)cc(N)n3)c(C)s2)cc1OCCNS(C)(=O)=O [dCKi],"Relative level, S7P",listed as D,0.547 and 0.8 and 1.8 and 0.0379 and 0.143 and 0.5
same,"Relative level, SAM",listed as D,1.1 and 1.4 (2×) and 0.8 and 0.6 and 0.7
same,"Relative level, Sarc (C00213)",listed as D,1.2 and 1.0 (2×) and 1.6 and 0.662 and 0.641
same,"Relative level, Ser (C00065)",listed as D,1.1 and 1.2 and 1.3 and 0.846 and 0.7 and 0.9
same,"Relative level, Shikimate (C00493)",listed as D,1.3 and 0.7 and 1.0 and 0.649 and 0.9 (2×)
same,"Relative level, Succ (C00042)",listed as D,1.5 and 0.6 (2×) and 1.3 and 0.374 and 0.633
same,"Relative level, T (C00214)",listed as D,1.2 and 1.1 and 1.0 and 1.4 and 151.2 and 4.3
same,"Relative level, Thr (C00188)",listed as D,1.1 and 1.2 and 1.3 and 0.8 and 0.7 and 0.738
same,"Relative level, Thymine (C00178)",listed as D,1.0 and 1.2 and 1.3 and 0.9 and 0.95 and 1.1
same,"Relative level, Trigonelline (C01004)",listed as D,1.2 (2×) and 0.847 and 1.1 and 1.5 and 1.0
same,"Relative level, Trp (C00078)",listed as D,1.1 and 1.4 and 1.7 and 0.9 (2×) and 1.0
same,"Relative level, Tyr (C00082)",listed as D,1.2 and 1.4 and 1.6 and 0.9 and 0.7 and 0.8
same,"Relative level, Tyramine (C00483)",listed as D,1.2 (2×) and 1.1 and 0.8 (2×) and 0.7
same,"Relative level, UDP (C00015)",listed as D,0.742 and 1.3 and 2.0 and 0.235 and 0.464 and 0.9
same,"Relative level, UDP-Glc (C00029)",listed as D,0.8 and 1.2 and 1.1 and 0.3 and 0.6 (2×)
same,"Relative level, UDP-GlcNAc (C00043)",listed as D,1.0 and 1.4 and 1.2 and 0.5 and 0.744 and 0.8
same,"Relative level, UMP (C00105)",listed as D,1.3 and 1.6 and 1.9 and 0.4 and 0.552 and 0.7
same,"Relative level, UTP (C00075)",listed as D,0.4 and 0.9 and 1.4 and 0.092 and 0.334 and 0.547
same,"Relative level, Uracil (C00106)",listed as D,1.2 (2×) and 0.9 and 1.0 and 1.3 and 1.9
same,"Relative level, Uric Acid (C00366)",listed as D,1.5 and 0.155 and 0.646 and 0.6 and 0.362 and 0.421
same,"Relative level, Urocanate (C00785)",listed as D,2.0 and 0.4 and 0.448 and 1.2 (2×) and 1.0
same,"Relative level, Val (C00183)",listed as D,1.1 and 1.2 (2×) and 0.9 (2×) and 1.0
same,"Relative level, Vit-C (C00072)",listed as D,0.9 and 0.181 and 1.3 and 0.0595 and 0.3 and 0.557
same,"Relative level, Xanthine (C00385)",listed as D,1.7 and 0.5 and 0.6 and 1.1 and 1.5 and 1.2
same,"Glucose labeling, 2-HG",[1],6.77% and 13.59% and 15.44% and 1.27% and 1.71% and 4.69%
same,"Relative level, 2-HG",[1],1.0 and 0.9 and 1.5 and 0.5 (2×) and 0.7
same,"Glucose labeling, 2-HIC",metabolite 2-HIC (C03264),0.00%
same,"Relative level, 2-HIC","metabolite 2-HIC (C03264), listed as D",1.2 and 1.1 and 1.4 and 0.9 and 1.3 and 0.8
same,"Glucose labeling, 2-KIC",metabolite 2-KIC (C00233),0.00%
same,"Relative level, 2-KIC","metabolite 2-KIC (C00233), listed as D",1.2 and 0.9 (3×) and 1.1 and 0.8
same,"Glucose labeling, 2-Oxoadipate",[2],0.00% (5×) and 1.11e-14%
same,"Relative level, 2-Oxoadipate",[2],0.7 (2×) and 0.646 and 0.742 and 1.0 and 0.9
same,"Glucose labeling, 2-Oxosuccinamate",metabolite 2-Oxosuccinamate (C02362),0.0737%
same,"Relative level, 2-Oxosuccinamate","metabolite 2-Oxosuccinamate (C02362), listed as D",1.2 and 0.465 and 0.6 and 0.528 and 0.8 and 0.469
same,"Glucose labeling, 3PG",[3],92.31% and 91.58% and 98.25% and 86.75% and 100.00% and 88.16%
same,"Relative level, 3PG",[3],0.4 and 0.7 and 0.846 and 0.082 and 0.125 and 0.0782
same,"Glucose labeling, 4-OH-PheLac",[4],0.00% (5×) and -2.22e-14%
same,"Relative level, 4-OH-PheLac",[4],1.1 and 1.4 and 1.5 and 0.641 and 0.6 and 0.8
same,"Glucose labeling, 5-Oxoproline",[5],0.92% and 1.40% and 1.07% and 1.03% and 1.24% and 1.22%
same,"Relative level, 5-Oxoproline",[5],1.1 and 1.2 and 1.5 and 0.853 and 0.9 and 1.0
same,"Glucose labeling, 5M-adenosine",[6],0.00% (3×) and -2.22e-14% (3×)
same,"Relative level, 5M-adenosine",[6],1.2 and 1.7 and 1.8 and 0.756 and 0.7 and 1.0
same,"Glucose labeling, A",[7],0.07% and 0.09% and 0.36% and 0.41% (2×) and 0.34%
same,"Relative level, A",[7],1.5 and 0.9 (2×) and 1.1 and 0.856 and 0.8
same,"Glucose labeling, ADP",[8],70.99% and 74.74% and 75.09% and 55.71% and 66.84% and 71.23%
same,"Relative level, ADP",[8],0.7 and 1.2 and 1.9 and 0.226 and 0.4 and 0.8
same,"Glucose labeling, AMP",[9],68.04% and 70.86% and 73.23% and 43.50% and 56.58% and 70.44%
same,"Relative level, AMP",[9],1.2 (2×) and 1.8 and 0.25 and 0.471 and 0.9
same,"Glucose labeling, ATP",[10],75.87% and 76.55% and 77.60% and 67.61% and 74.40% and 75.12%
same,"Relative level, ATP",[10],0.38 and 0.9 and 1.3 and 0.117 and 0.3 and 0.6
same,"Glucose labeling, Ac-carnitine",[11],31.00% and 33.96% and 35.62% and 27.44% and 29.81% and 28.83%
same,"Relative level, Ac-carnitine",[11],1.1 and 1.3 and 1.2 and 0.7 and 0.756 and 0.8
same,"Glucose labeling, Ac-choline",[12],0.00451% and 0.00494% and 0.00571% and 0.0058% and 0.0047% and 0.00638%
same,"Relative level, Ac-choline",[12],0.9 and 1.1 and 1.0 (4×)
same,"Glucose labeling, Aconitate",[13],32.66% and 37.44% and 42.11% and 17.39% and 31.02% and 28.93%
same,"Relative level, Aconitate",[13],0.7 and 1.2 and 1.6 and 0.2 and 0.5 and 0.639
same,"Glucose labeling, Adenine",[14],0.0339% and 2.19% and 0.79% and 0.14% and 0.00469% and 0.21%
same,"Relative level, Adenine",[14],1.9 and 0.7 and 1.3 (2×) and 3.1 and 1.0
same,"Glucose labeling, Ala",[15],47.12% and 64.98% and 65.33% and 49.43% and 49.22% and 48.91%
same,"Relative level, Ala",[15],1.5 and 1.2 and 1.3 and 0.8 (3×)
same,"Glucose labeling, Allantoin",[16],0.00% (5×) and 1.11e-14%
same,"Relative level, Allantoin",[16],1.1 and 1.9 and 2.0 and 0.8 and 1.3 and 1.5
same,"Glucose labeling, Arg",[17],0.0044% and 0.00434% and 0.00388% and 0.00418% and 0.00453% and 0.00424%
same,"Relative level, Arg",[17],1.0 and 1.3 and 1.5 and 0.749 and 0.7 (2×)
same,"Glucose labeling, Arg-Succ","metabolite Arg-Succ (C03406), listed as D",7.24% and 12.66% and 11.40% and 7.14% and 3.06% and 7.90%
